Test results published in US4323567A, “Arylmalonamido-1-oxadethiacephalosporins” (priority 1976, dated 1982).
Read-outs that look alike come from different tables or passages of the source.

How the values were obtained:
Assay in all cases: Minimal inhibitory concentration, nutrient agar plate
Escherichia coli H = format: cell-based; details: inoculum size 10^8, pH 7.0, read-out: Minimal inhibitory concentration
Klebsiella pneumoniae = format: cell-based; details: inoculum size 10^8, pH 7.0, read-out: Minimal inhibitory concentration
E. coli 73 = format: cell-based, Escherichia coli; details: Escherichia coli, 73, inoculum size 10^8, pH 7.0, read-out: Minimal inhibitory concentration
[1] = test system: Pseudomonas aeruginosa Denken; format: cell-based; details: inoculum size 10^8, pH 7.0, read-out: Minimal inhibitory concentration
E. coli 377 = format: cell-based, Escherichia coli; details: Escherichia coli, 377, inoculum size 10^8, pH 7.0, read-out: Minimal inhibitory concentration
Ps. aeruginosa 25619 = format: cell-based, Pseudomonas aeruginosa; details: Pseudomonas aeruginosa, 25619, inoculum size 10^8, pH 7.0, read-out: Minimal inhibitory concentration
Enterobacter cloacae 233 = format: cell-based; details: Enterobacter cloacae, 233, inoculum size 10^8, pH 7.0, read-out: Minimal inhibitory concentration
E. coli JC-2 = format: cell-based; details: Escherichia coli, JC2, inoculum size 10^8, pH 7.0, read-out: Minimal inhibitory concentration
Ps. aeruginosa 24 = format: cell-based, Pseudomonas aeruginosa; details: Pseudomonas aeruginosa, 24, inoculum size 10^8, pH 7.0, read-out: Minimal inhibitory concentration
P. morganii No. 9 = format: cell-based, Proteus morganii; details: Morganella morganii, NO.9, inoculum size 10^8, pH 7.0, read-out: Minimal inhibitory concentration
Proteus mirabilis PR-4 = format: cell-based; details: inoculum size 10^8, pH 7.0, read-out: Minimal inhibitory concentration
[2] = test system: Serratia marsescens 13880; format: cell-based; details: Serratia, 13880, inoculum size 10^8, pH 7.0, read-out: Minimal inhibitory concentration
P. vulgaris CN-329 = format: cell-based; details: Proteus vulgaris, CN329, inoculum size 10^8, pH 7.0, read-out: Minimal inhibitory concentration
Klebsiella sp. 363 = format: cell-based; details: inoculum size 10^8, pH 7.0, read-out: Minimal inhibitory concentration
[3] = ester, in the presence of 5% horse serum, sodium salt

Row | SMILES | MIC (Escherichia coli H; as sodium salt) | MIC (Klebsiella pneumoniae; as sodium salt) | MIC (E. coli 73; as sodium salt) | MIC ([1]; as sodium salt) | MIC (E. coli 377; as sodium salt) | MIC (Ps. aeruginosa 25619; as sodium salt) | MIC (Enterobacter cloacae 233; as sodium salt) | MIC (E. coli JC-2; as sodium salt) | MIC (Ps. aeruginosa 24; as sodium salt) | MIC (P. morganii No. 9; as sodium salt) | MIC (Proteus mirabilis PR-4; PR4, as sodium salt) | MIC ([2]; as sodium salt) | MIC (P. vulgaris CN-329; as sodium salt) | MIC (Klebsiella sp. 363; SP.363, as sodium salt) | also measured
1 | Cn1nnnc1SCC1=C(C(=O)O)N2C(=O)[C@@H](NC(=O)C(C(=O)O)c3ccccc3)[C@H]2OC1 (stereo partly drawn) [Example III-1, 7β-(α-phenyl-α-carboxyacetamido)-3-(1-methyltetrazol-5-yl)thiomethyl-1-oxadethia-3-cephem-4-carboxylic acid] | 0.1 mg/L | 0.2 mg/L | > 100 mg/L | > 100 mg/L | 0.2 mg/L | 3.13 mg/L | 0.39 mg/L | 0.2 mg/L | > 100 mg/L | 0.39 mg/L | 0.39 mg/L | 0.78 mg/L | 100 mg/L | – | –
2 | CC(=O)OCC1=C(C(=O)O)N2C(=O)[C@@H](NC(=O)Cc3cccs3)[C@H]2OC1 [(2), 7β-(2thienylacetamido)-1-oxadethiacephalosporanic acid, reference compound] | 0.39 mg/L | 1.56 mg/L | > 100 mg/L | > 100 mg/L | > 100 mg/L | > 100 mg/L | > 100 mg/L | 6.25 mg/L | > 100 mg/L | > 100 mg/L | 1.56 mg/L | > 100 mg/L | > 100 mg/L | > 100 mg/L | –
3 | Cn1nnnc1SCC1=C(C(=O)O)N2C(=O)[C@@H](NC(=O)C(C(=O)O)c3ccsc3)[C@H]2OC1 (stereo partly drawn) [Example III-9, 7β-[α-(3-thienyl)-α-carboxyacetamido]-3-(1-methyltetrazol-5-yl)thiomethyl-1-oxadethia-3-cephem-4-carboxylic acid] | 0.1 mg/L | 0.2 mg/L | > 100 mg/L | > 100 mg/L | 0.2 mg/L | 6.25 mg/L | 0.39 mg/L | 0.1 mg/L | – | 0.39 mg/L | 0.39 mg/L | 0.78 mg/L | 100 mg/L | > 100 mg/L | –
4 | Cc1nnc(SCC2=C(C(=O)O)N3C(=O)[C@@H](NC(=O)Cn4cnnn4)[C@H]3OC2)s1 [(3), 7β-(1tetrazolyl)acetamido-3-(2-methyl-1,3,4-thiadiazol-5-yl)thiomethl-1-oxadethia-3-cephem-4-carboxylic acid, reference compound] | 1.56 mg/L | 3.13 mg/L | > 100 mg/L | > 100 mg/L | 25 mg/L | > 100 mg/L | > 100 mg/L | 1.56 mg/L | > 100 mg/L | 50 mg/L | 1.56 mg/L | > 100 mg/L | > 100 mg/L | > 100 mg/L | –
5 | Cn1nnnc1SCC1=C(C(=O)O)N2C(=O)[C@@H](NC(=O)C(O)c3ccccc3)[C@H]2OC1 (stereo partly drawn) [(4), 7β-mandelamido3-(1-methyltetrazol-5-yl)thiomethyl-1-oxadethia-3-cephm-4-carboxylic acid, reference compound] | 0.1 mg/L | 0.2 mg/L | > 100 mg/L | > 100 mg/L | 50 mg/L | > 100 mg/L | > 100 mg/L | 0.2 mg/L | > 100 mg/L | 100 mg/L | 0.2 mg/L | 100 mg/L | > 100 mg/L | > 100 mg/L | –
6 | CC1=C(C(=O)O)N2C(=O)[C@@H](NC(=O)C(N)c3ccccc3)[C@H]2OC1 (stereo partly drawn) [(1), 7β-(α-phenylglycinamido)3-methyl-1-oxadethia-3-cephem-4-carboxlic acid, reference compound] | > 100 mg/L | > 100 mg/L | > 100 mg/L | > 100 mg/L | > 100 mg/L | > 100 mg/L | > 100 mg/L | > 100 mg/L | > 100 mg/L | > 100 mg/L | > 100 mg/L | > 100 mg/L | > 100 mg/L | > 100 mg/L | –
7 | Cc1nnc(SCC2=C(C(=O)O)N3C(=O)[C@@H](NC(=O)C(C(=O)O)c4ccccc4)[C@H]3OC2)s1 (stereo partly drawn) [Example III-12, 7β-(α-phenyl-α-carboxyacetamido)-3-(2-methyl-1,3,4-thiadiazol-5-yl)thiomethyl-1-oxadethia-3-cephem-4-carboxylic acid] | 0.2 mg/L | 0.78 mg/L | > 100 mg/L | > 100 mg/L | 0.78 mg/L | 3.13 mg/L | 1.56 mg/L | 0.39 mg/L | > 100 mg/L | 0.39 mg/L | 0.39 mg/L | 1.56 mg/L | 100 mg/L | > 100 mg/L | –
8 | Cn1nnnc1SCC1=C(C(=O)[O-])N2C(=O)[C@@H](NC(=O)C(C(=O)Oc3ccc4c(c3)CCC4)c3ccccc3)[C@H]2OC1.[Na+] (stereo partly drawn) [Example III-2, sodium 7β-[α-(5-indanyl)oxycarbonyl-α-phenylacetamido]-3-(1-methyltetrazol-5-yl)thiomethyl-1-oxadethia-3-cephem-4-carboxylate] | – | – | – | – | – | – | – | – | – | – | – | – | – | – | MIC (Escherichia coli H; [3]): 0.1 mg/L; MIC (Klebsiella pneumoniae; [3]): 0.2 mg/L; MIC (E. coli 73; [3]): > 100 mg/L; MIC [1, 3]: > 100 mg/L; MIC (E. coli 377; [3]): 0.2 mg/L; MIC (Ps. aeruginosa 25619; [3]): 6.25 mg/L; MIC (Enterobacter cloacae 233; [3]): 0.39 mg/L; MIC (E. coli JC-2; [3]): 0.2 mg/L; MIC (Ps. aeruginosa 24; [3]): > 100 mg/L; MIC (Klebsiella sp. 363; SP.363, ester, in the presence of 5% horse serum, sodium salt): > 100 mg/L; MIC (P. morganii No. 9; [3]): 0.39 mg/L; MIC (Proteus mirabilis PR-4; PR4, ester, in the presence of 5% horse serum, sodium salt): 0.39 mg/L; MIC [2, 3]: 0.78 mg/L; MIC (P. vulgaris CN-329; [3]): 50 mg/L
9 | O=C(O)Cn1nnnc1SCC1=C(C(=O)O)N2C(=O)[C@@H](NC(=O)C(C(=O)O)c3cccs3)[C@H]2OC1 (stereo partly drawn) [Example III-11, 7β-[α-(2-thienyl)-α-carboxyacetamido]-3-(1-carboxymethyltetrazol-5-yl)thiomethyl-1-oxadethia-3-cephem-4-carboxylic acid] | 0.78 mg/L | 3.13 mg/L | > 100 mg/L | > 100 mg/L | 6.25 mg/L | > 100 mg/L | 25 mg/L | 12.5 mg/L | – | 1.56 mg/L | 1.56 mg/L | 25 mg/L | > 100 mg/L | > 100 mg/L | –
